Measurements reported in PubChem BioAssay AID1159565 (GlaxoSmithKline (GSK), 2015).
Calls of active or inactive are those of the source. No rule for the calls is given here.

Test system: T. cruzi-infected H9C2 cardiomyocytes, high-content imaging
Experiment: anti-T. cruzi activity in infected cardiomyocytes – imaging, H9C2 host cardiomyocytes, host toxicity (AID 1159565);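 also: infected cells incubated 72 h after plating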
[1] = measured here: H9C2 host cell toxicity
[2] = measured here: amastigotes per cell

Structure (SMILES)	IC50	IC50 [1] [µM]	IC50 [2] [µM]
COc1cccc(-c2cc(C(F)(F)F)nc(-n3ccc([N+](=O)[O-])n3)n2)c1	0.4 µM	> 50	0.2
CCOc1cc(NCCCN2CCN(C)CC2)c2ncccc2c1	1.3 µM	32	1
COc1cccc(-c2c(C)nn(-c3nc(N)nc(-c4ccccn4)n3)c2N)c1	2 µM	> 50	0.5
O=C(c1ccccc1)N1CCC(C(=O)N2CCC(Oc3ccccc3Cl)CC2)CC1	32 µM	> 50	25
Cc1cc2nc(N3CC[C@H]3C(N)=O)nc(Nc3cc(C4CC4)[nH]n3)c2s1	7.9 µM	0.5	4
CN1CCCN(C(=O)c2ccc(N3CCCC3)cc2Cl)CC1	1 µM	> 50	0.63
COc1ccc(Nc2nc(NC3CCC(O)CC3)ncc2Br)c(C(N)=O)c1 (stereo not drawn)	3.2 µM	0.79	2
Cc1nc(-c2ccncc2)ncc1C(C)NC(=O)c1ccc(Cl)s1 (stereo not drawn)	32 µM	> 50	20
COc1ccc(CNc2cc(C3CC3)nc(-c3nccn3C)n2)cc1	0.79 µM	1	0.63
O=C(Nc1nccs1)c1ccccc1Cn1cc([N+](=O)[O-])cn1	> 50 µM (inactive)	> 50	> 50
O=C(Nc1ccccc1)Nc1nc(-c2ccccn2)cs1	1 µM	1	0.63
CCN(Cc1ccncc1)Cc1ccc(NC(=O)c2cc(-c3ccc(F)cc3)n[nH]2)cc1	0.25 µM	> 50	0.25
Cc1cc(N(C)C)nc(Nc2ccccc2C)n1	0.79 µM	> 50	0.5
CNc1cncc(C2CCCN2C(=O)Cc2coc3cc(C)ccc23)n1 (stereo not drawn)	0.2 µM	> 50	0.2
CCc1cccc(-n2nc(OCC(=O)NC3CCCC3)c3cccnc32)c1	> 50 µM (inactive)	> 50	> 50
CNS(=O)(=O)c1ccccc1Nc1nc(Nc2cc(C)nn2C)ncc1Cl	0.79 µM	0.25	0.5
COc1ccc(C2=NCC(CSc3nnc(-c4ccc5c(c4)OCO5)o3)S2)cc1 (stereo not drawn)	0.5 µM	> 50	0.32
COc1ccc(-c2csc(NC(=O)c3ccc([N+](=O)[O-])s3)n2)cc1	0.25 µM	32	0.2
O=C(Nc1ccc(C(F)(F)F)cc1)Nc1cccc([N+](=O)[O-])c1	1.3 µM	5	0.79
O=C(c1cnn(-c2ccccc2)n1)N1CCCC(n2ccnc2)C1 (stereo not drawn)	0.079 µM	> 50	0.063
CNC(=O)C1Cc2ccccc2N1C(=O)Cc1ccc(F)cc1 (stereo not drawn)	> 50 µM (inactive)	> 50	> 50
O=c1[nH]ccc2ccc(-c3ccncc3)cc12	0.25 µM	> 50	0.25
O=C(NCCc1csc(-c2cccc(F)c2)n1)c1ccco1	1.6 µM	10	1.3
O=C(NCCc1nc(-c2ccc(F)c(F)c2)n[nH]1)C1CCCCC1	2.5 µM	> 50	1.6
Nc1ncnc2c1ncn2[C@@H]1O[C@H](CO)C[C@H]1O	2 µM	5	1.3
CN(Cc1ccc(C(N)=O)cc1)C(c1ccc(F)cc1)c1cccnc1 (stereo not drawn)	0.25 µM	> 50	0.2
